Structures can show the parent of a compound that is named as a salt.
Tests used:
Raji or OKT3 cells = test: Cell proliferation assay with THP-1-conditioned media; assay type: cell-based; settings: conditioned medium from THP-1 cells treated with P4N, 48 h, MTT
Protocol: (§1) FIGS. 5A-5F depict the expression of Activin A/BAFF induced by P4N treatments. (A) P4N induced Activin A or BAFF expression in human PBMCs as determined by RT-PCR. S1-S5 display different individual blood samples collected from 5 different human donors; N, no treatment; P, P4N-treatment (3 μM). The change in Activin A and BAFF expression (mean of 5 patients) relative to the control (NC) is plotted as a histogram (B) The effect of increasing dosages of P4N for 12 h on mRNA and protein levels of Activin A or BAFF in THP-1 cells was analyzed by RT-PCR and ELISA. (C) The effect of 6 μM P4N on mRNA and protein levels of Activin A or BAFF in THP-1 cells was determined at a different time period. (D) The effect of different inhibitors on Activin A-induced BAFF expression was examined. The expression of BAFF mRNA in inhibitor-treated THP-1 cells was determined by RT-PCR, and (E) BAFF protein secretion was measured by ELISA. (F) The effect of THP-1 conditioned media on the proliferation of Raji cells and OKT3 hybridoma cells were determined. Media were harvested, in which THP-1 cells were pre-treated without inhibitor (2) or with SB431542 (3), A83-01 (4), SIS3 (5), SB203580 (6) or PD98059 (7) and then treated with P4N for 12 h. The results are expressed as % viable cells relative to the control (NC, media from untreated THP-1 cells). All values are the means of triplicate samples±SEM. The significant differences in the results of inhibitor and P4N-treated groups compared with the untreated group are indicated by ***P<0.001.
Cell proliferation assay. Raji or OKT3 cells (1×10^4/well) were seeded and treated with THP-1-conditioned media. After 48 h the number of viable cells was determined by MTT assay. The indices of cell proliferation were calculated as previously described.

Human B or T cells = test: Proliferation of isolated human B or T cells, MTT assay; assay type: cell-based
Protocol: FIG. 10 depicts the effects of P4N on cell proliferation. Human B or T cells were isolated from the PBMCs by negative selection using a magnetic sorting device (Miltenyi Biotec, Auburn, Calif.). Cell proliferation was determined by an MTT assay.
Total B-cells were isolated from human PBMCs or mouse splenocytes by negative selection using a magnetic sorting device (Miltenyi Biotec, Auburn, Calif.). Briefly, PBMCs were incubated with a cocktail of biotin-conjugated antibodies, followed by microbead-conjugated anti-biotin Abs for magnetic depletion. B-cells were eluted according to the manufacturer's protocols. Human blood samples were collected from healthy individuals following an IRB-approved protocol and in agreement with the Committee for Research Ethics Board of Chung Shan Medical University Hospital.

CT-26 cells = test: Binding of anti-sera to CT-26 tumor tissue and cell surface antigens; parameters: species or system mouse; settings: flow cytometry, FIG. 15
Protocol: FIG. 15 is a graph showing the affinities of anti-sera against CT-26 cells after different lengths of incubation. Tumor antigens on the surface of CT26 cells were indirectly probed with P4N and PBS anti-sera and FITC-conjugated goat anti-mouse IgG antibody. The specific fluorescent activities were measured by flow cytometry.
Sections of CT-26 tumors from untreated mice were incubated with a 200-fold dilution of normal sera, PBS anti-sera or P4N anti-sera at 4° C. overnight. Sequentially, the sections were recognized using an HRP-conjugated anti-mouse IgG antibody (1:1500 dilution; Santa Cruz Biotechnology), and then developed, counterstained and photographed as described above.
Immunofluorescence analysis of cell surface tumor antigens. CT-26 cells were seeded on glass cover slides, and fixed with 4% (w/w) paraformaldehyde The fixed cells were then incubated with normal sera, PBS anti-sera or P4N anti-sera for 1 h and detected with secondary antibodies conjugated to Alexa Fluor 568 (Molecular Probes, Eugene, USA). Alexa Fluor 488-conjugated Concanavalin A (ConA; Molecular Probes) and DAPI (Molecular Probes) were used to label the plasma membrane and nucleus. The images of tumor antigens recognized by the anti-sera were photographed at a 400× magnification using a Zeiss LSM 510 META confocal microscope (Carl Zeiss, Jena, Germany).

THP-1 cells [1] = test: Activin A and BAFF mRNA and protein in THP-1 cells, RT-PCR and ELISA; assay type: cell-based
Protocol: as §1
Reverse transcription PCR. Human PBMCs or THP-1 cells were treated with P4N, and then the mRNA expression of INHBA and BAFF in these cells was measured by reverse transcription PCR. Briefly, total cellular RNA was extracted with Trizol reagent (Invitrogen) and reverse-transcribed into cDNA using the Superscript RT-kit (Invitrogen). The cDNA of INHBA and BAFF were then amplified by PCR. GAPDH cDNA in the samples was used to normalize the loading amounts in each reaction. […]

THP-1 cells [2] = test: Gene expression profiling of P4N treated THP-1 cells, cDNA microarray; assay type: cell-based; settings: THP-1 cells following P4N treatment
Protocol: Gene expression profiling and analysis. Amplification and labeling of RNA was performed with the Illumina®TotalPrep RNA Amplification Kit from Life Technologies (Ambion, Applied Biosystems, Foster City, Calif.) using 150 ng of RNA per sample. Labeled RNA (750 ng) was hybridized to Illumina HT-12 v4 Expression BeadChips (˜48,000 probes) and processed according to the manufacturer's protocol. Expression data underwent quality control and normalization by GenomeStudio (Illumina, San Diego, Calif.). Genes differentially expressed in the cells treated with P4N relative to the untreated cells were identified, with special emphasis given to genes involved in cytokine-cytokine receptor interaction (KEGG pathway). […] The identified genes were subjected to the Database for Annotation, Visualization and Integrated Discovery (DAVID) (david.abcc.ncifcrf.gov/) for Gene Ontology (GO) and KEGG pathway enrichment analysis. A P-value <0.05 was set as threshold of enrichment analysis.

CT26 tumors = test: P4N treatments in vivo, CT-26 tumors in BALB/c mice; settings: one intratumoral injection of 2.5 mg/kg or 5 mg/kg
Protocol: P4N treatments in vivo. BALB/c or BALB/c/nu mice (6 week old) were inoculated subcutaneously with 1×10^6 CT-26 cells in 100 μl PBS. When the average tumor mass reached 50 mm^3, the animals were treated with 2.5 mg/kg or 5 mg/kg of P4N in one intratumoral injection. Subsequently, the tumor volumes were measured using a caliper every 2 days, and the volumes were calculated using the following formula: volume (mm^3)=length×width×height. Before sacrifice, the sera of the mice were collected for experimental use.

SMILES: C[C@H](Cc1ccc(OCCN2CCCCC2)c(OCCN2CCCCC2)c1)[C@@H](C)Cc1ccc(OCCN2CCCCC2)c(OCCN2CCCCC2)c1 [P4N, meso-2,3-dimethyl-1,4-bis(3,4-[2-(piperidino)ethoxyphenyl])butane tetrakishydrochloride salt]
- proliferation of Raji or OKT3 cells (Raji or OKT3 cells): increased the proliferation
- proliferation of T-cell-depleted PBMCs (Human B or T cells): increased the proliferation
- proliferation of isolated T cells or B cells (Human B or T cells): did not induce the proliferation
- binding affinities of EAA (CT-26 cells): enhanced their binding affinities
- time of elevated BAFF expression (THP-1 cells [1]; THP-1, 6 μM P4N): 8 h
- time of up-regulated mRNA expression of Activin A (THP-1 cells [1]; THP-1, 6 μM P4N): 2 h
- dose dependence of Activin A and BAFF mRNA and protein levels (THP-1 cells [1]; THP-1, increasing dosages of P4N, 12 h): dose-dependent manner
- up-regulated genes of cytokine-cytokine interaction (KEGG pathway) (THP-1 cells [2]): 26
- up-regulated genes of growth factor activity (GO: 0008083) (THP-1 cells [2]): 10
- growth of CT26 tumors (CT26 tumors): significantly inhibited

Reference: patent US20190111040A1, “IN VIVO AMELIORATION OF ENDOGENOUS ANTI-TUMOR AUTOANTIBODIES TARGETING SURFACE TUMOR ANTIGENS VIA LOW-DOSE P4N” (THE JOHNS HOPKINS UNIVERSITY, priority 2016, published 2019)
